Laboratory results: patent publication US8642627B2 (priority 2002, dated 2014)
Read-outs that look alike come from different tables or passages of the source.

Columns and labels:
[1] = Andersen Cascade Impactor (ACI) experiment; format: physicochemical
[2] = apparent pH 6.5, 90% ethanol
[3] = aqueous system, 20° C.; cited from earlier work
adult = conditions: cited from earlier work
[4] = cited from earlier work

## CN1CCCC1c1cccnc1 (stereo not shown) [nicotine, 3-(1-methyl-2-pyrrolidinyl)-pyridine]
[1]; formulation at apparent pH 4.0, nicotine in salt form
  behaviour of nicotine in the aerosol droplets: remains in the liquid droplets
[1]; formulation at apparent pH 6.0
  behaviour of nicotine in the aerosol droplets: escapes from the liquid droplets as a vapor
  share of nicotine in its free base form: approximately 15%
[2]
  share of nicotine in its free base form: 50%
physchem; apparent pKa of nicotine, 90% ethanol, titration curve with sulphuric acid
  pKa: 6.5
physchem; apparent pKa, ethanol-based system, 20° C.
  pKa: ~6.5
[3]
  pKa for the acid dissociation constant of the mono protonated form of nicotine: approximately 8.0
adult
  amount that may kill an adult: Approximately forty
[4]; in vivo
  arterial levels exceeding the venous levels: six- to ten-fold
[4]; smoking of a cigarette
  time to reach the brain after inhalation: ten
